Tests used:
Assay type in all cases: in vivo
[1] = tested on: CD8-positive T cells in peripheral blood; experiment: Number of CD8-positive T cells in peripheral blood in FM3A syngeneic mouse model (flow cytometry); conditions: day 8; irinotecan 250 mg/kg ip once; P<0.05, Wilcoxon Signed-Rank Test
Method: On day 8 of administration, peripheral blood was collected, CD8-positive T cells were measured by flow cytometry (FIG. 2).

[2] = tested on: CD8-positive T cells in tumor; experiment: CD8, CD69 or Ki-67-positive tumor-infiltrating lymphocytes in FM3A syngeneic mouse model (flow cytometry); conditions: day 8, irinotecan 250 mg/kg ip once
Source text: On day 8 of administration, tumors were collected, and then cells were dissociated using a gentleMACS (Trademark) Octo Dissociator, washed, and then used for flow cytometry, thereby quantitatively determining CD8, CD69 or Ki-67-positive tumor-infiltrating lymphocytes (TIL) (FIG. 3).

[3] = tested on: Foxp3-positive CD4-positive regulatory T cells in tumor; experiment: Foxp3-positive CD4-positive regulatory T cells in tumor in FM3A syngeneic mouse model (flow cytometry); conditions: day 8; irinotecan 250 mg/kg ip once
Source text: On day 8 of administration, tumors were collected, and then cells were dissociated using a gentleMACS (Trademark) Octo Dissociator, washed, and then used for flow cytometry, thereby measuring Foxp3-positive CD4-positive regulatory T cells by flow cytometry (FIG. 4).

## CCc1c2c(nc3ccc(OC(=O)N4CCC(N5CCCCC5)CC4)cc13)-c1cc3c(c(=O)n1C2)COC(=O)[C@]3(O)CC [irinotecan]
[1]
  number of CD8-positive T cells in peripheral blood versus solvent administration group: significantly lower
[2]
  CD8-positive T cells in lymph nodes compared with the solvent administration group (FIG. 3A): not found to exhibit any significant decrease
  CD69-positive CD8-positive T cells among tumor cells compared with the solvent administration group (FIG. 3B): not found to exhibit any significant decrease
[2]; 10F.9G2 10 mg/kg ip 3 times a week
  Ki-67-positive CD8-positive T cells in tumors compared with the solvent administration group (FIG. 3C): significant increases
[3]
  Foxp3-positive CD4-positive regulatory T cells in tumors versus solvent administration group: significantly lower

Reference: patent US20230091221A1, “PHARMACEUTICAL COMPOSITION” (Chugai Seiyaku Kabushiki Kaisha, priority 2017, published 2023)
